SMILES strings stand for the structures. “Also recorded” adds a separate entry of the source.

Assay [1] has as its system endogenous neural stem cell populations in the brain. The assay can be described thus: Endogenous stem cell proliferation in aged rat brain after MS-818 i.p., BrdU immunostaining. It is filed as in vivo. Conditions: 3 mg/kg/day i.p. for 5 days. How it is done: To investigate the effect of MS-818, a pyrimidine derivative, on stem cell population in vivo, MS-818 (3 mg/kg/day, i.p.) was injected for 5 days into aged (27-month old) male Fisher 344 rats. The same volume of saline was injected into control animals. Bromodeoxyuridine (BrdU) (100 mg/kg/day i.p.) was then injected for 3 days. Twenty-four hours after the last injection, the brains were removed and fixed for immunohistochemical detection of the proliferating cells by immunostaining for BrdU.

Assay [2] concerns endogenous retinal stem cell populations. The assay can be described thus: Endogenous retinal stem cell proliferation after intraocular MS-818, BrdU immunostaining. The class given is in vivo. The conditions noted are these: rat; intraocular (vitreous cavity) 10 μg/20 μl, one time injection; after three days.

Consider `CC1Nc2nc(N3CCCCC3)ncc2C1=O.O=C(O)/C=C\C(=O)O` (stereo not shown) [MS-818, 2-piperadino-6-methyl-5-oxo-5,6-dihydro(7H) pyrrolo[2,3-d]pyrimidine maleate], for which the “proliferation and migration of stem cells in the subventricular zone” value in assay [1] is given as “significant increase not only in the proliferation but also in the migration of stem cells”. In addition, in assay [1] (vs control without MS-818), the “number of BrdU positive cells in SVZ (immunohistochemistry)” value is recorded as “increased” and the “number of BrdU positive cells in cerebral cortex (immunohistochemistry)” value was “significantly increased”. Moreover, the “number of BrdU-positive cells in retina / retinal ciliary marginal zone” value in assay [2] is listed as “dramatic increase; also recorded: clearly increased”.

These data come from patent US8273756B2, “Use of modified pyrimidine compounds to promote stem cell migration and proliferation” (University of Central Florida Research Foundation, Inc., priority 2002, dated 2012).
